From article PMC3898838, “Design, Synthesis, and Biological Evaluation of an Allosteric Inhibitor of HSET that Targets Cancer Cells with Supernumerary Centrosomes” (Chemistry & Biology, 2013) come the findings set out here.

The target of experiment [1] is T1, full-length, N-terminal, 6His-tagged human HSET (Homo sapiens, UniProt Q9BW19).
T1 sequence (Q9BW19 307-663 limits assumed): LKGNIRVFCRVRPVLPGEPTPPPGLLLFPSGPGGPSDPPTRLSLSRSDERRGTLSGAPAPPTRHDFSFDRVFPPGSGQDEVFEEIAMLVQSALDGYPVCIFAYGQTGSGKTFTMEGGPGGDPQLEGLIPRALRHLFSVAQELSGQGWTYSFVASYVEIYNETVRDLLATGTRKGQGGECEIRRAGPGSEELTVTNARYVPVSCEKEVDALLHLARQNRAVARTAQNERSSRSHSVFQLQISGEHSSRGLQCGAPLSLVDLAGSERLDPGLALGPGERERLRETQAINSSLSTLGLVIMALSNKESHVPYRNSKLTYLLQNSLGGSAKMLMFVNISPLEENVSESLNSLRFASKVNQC
Kind of experiment: Differential scanning fluorimetry (DSF). It counts as binding. The conditions noted are these: CW069 0.03125-1 mM in 4% DMSO. The method, then:
DSF is an inexpensive and rapid method for identifying ligands of purified proteins, and relies on the difference in protein unfolding temperature in the presence and absence of a small molecule ([Niesen et al., 2007]). The unfolding temperature is measured by the increase in fluorescence of a dye with particular affinity for the hydrophobic regions of proteins, which become exposed upon unfolding ([Niesen et al., 2007]). The difference in the transition midpoint, ΔTm, in the presence of a ligand is related to its binding affinity; however, this is not a direct measure of the binding coefficient and therefore was not used to calculate the affinity of CW069 for HSET ([Holdgate and Ward, 2005]).
On the technique in general: DSF heats the sample and reads unfolding from a dye or from intrinsic fluorescence.

Experiment [2] addresses T2, full-length, N-terminal, 6His-tagged human HSET (Homo sapiens, UniProt Q9BW19).
T2 construct: The protocol was optimized for use with full-length, N-terminal, 6His-tagged HSET and KSP; made in house; host or cells: Sf9 insect cells (baculovirus, pFastBac1)
T2 sequence (Q9BW19 1-673): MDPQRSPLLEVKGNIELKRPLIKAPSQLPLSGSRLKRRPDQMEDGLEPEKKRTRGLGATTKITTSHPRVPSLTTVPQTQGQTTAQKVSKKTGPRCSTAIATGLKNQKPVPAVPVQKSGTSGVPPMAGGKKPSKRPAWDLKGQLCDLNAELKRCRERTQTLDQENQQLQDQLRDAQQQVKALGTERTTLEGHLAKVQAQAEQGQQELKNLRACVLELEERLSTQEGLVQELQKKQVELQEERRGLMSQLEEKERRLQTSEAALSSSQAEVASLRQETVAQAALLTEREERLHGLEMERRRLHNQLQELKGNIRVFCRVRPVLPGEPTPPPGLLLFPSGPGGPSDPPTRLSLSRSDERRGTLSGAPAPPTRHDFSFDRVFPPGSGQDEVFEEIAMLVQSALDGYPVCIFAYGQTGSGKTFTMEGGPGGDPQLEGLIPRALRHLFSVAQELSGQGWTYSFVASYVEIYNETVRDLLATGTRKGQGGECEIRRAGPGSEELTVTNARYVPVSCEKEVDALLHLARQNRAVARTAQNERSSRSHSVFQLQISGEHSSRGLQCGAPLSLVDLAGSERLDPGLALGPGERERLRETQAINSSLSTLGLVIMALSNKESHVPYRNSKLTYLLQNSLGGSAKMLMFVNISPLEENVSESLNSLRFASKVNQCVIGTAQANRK
Kind of experiment: In vitro enzymatic ATPase assay (ADP-Glo), MT-stimulated activity. It counts as biochemical. The text has this:
The similarity decreases to 56% in the loop 5 binding cleft alone (residues 422–432; Figure 1A). Given the high degree of similarity between the proteins, and the potential for selective binding in the loop 5 cleft, the chemogenomics principle that similar proteins bind similar ligands was applied to HSET and KSP, and an in silico model for HSET binding was developed based on nearly 500 existing inhibitors of KSP in the ChEMBL database (see Experimental Procedures for details; [Klabunde, 2007]). Using the model parameters, we selected 200 compounds (in silico) from 20 million possibilities and further triaged them into 50 ligands that scored highest in the bioactivity model. We acquired and tested these ligands for in vitro activity using an ADP-Glo enzymatic assay (see Experimental Procedures for details; Figure 1B).
The protocol was optimized for use with full-length, N-terminal, 6His-tagged HSET and KSP, and measured the MT-stimulated activity of the proteins. Inhibition of the […] of HSET/KSP was observed spectrophotometrically by coupling the hydrolysis of ATP to oxidation of NADH via pyruvate kinase/lactate dehydrogenase reactions. The assay was initiated by […] an assay mixture containing the following components (final concentration): 6 nM protein, 0.07 mg/ml MTs (University Biologicals), […], 2 mM ATP, 2.7 mM MgCI, 1 mM phospho(enol)-pyruvate, 0.2 mM NADH, 50 μg/ml lactate dehydrogenase, 100 μg/ml pyruvate kinase, and various concentrations of inhibitor all in 50 mM Na PIPES (pH 6.8) at 37°C. The ADP-Glo detection assay (Promega) was performed as described in the manufacturer’s instructions. All compound additions were performed using a multidrop BioMek Nxp (Beckman Coulter). Plates were read using a Pherastar microplate reader (BMG Labtech).
For orientation: In ADP-Glo the light output rises with the ADP produced.

Consider `O=C(O)c1cc(I)ccc1NC(=O)[C@H](Cc1ccccc1)NCc1ccccc1` [CW069], for which the “maximum HSET ΔTm” value in experiment [1] is −8.0 °C. Moreover, in experiment [2] (concentrations up to 250 μM, mean ± SD), it took 75 ± 20 µM to reach half-maximal inhibition (IC50). Further, the “selectivity for HSET over KSP” value in experiment [2] (from IC50 values, HSET vs KSP) was roughly 4 fold.

As a reminder, the IC50 is the concentration at which inhibition is half-maximal. Lower therefore signals greater potency.
